The record followed here is PMC9611521, “Optimization of Resveratrol Used as a Scaffold to Design Histone Deacetylase (HDAC-1 and HDAC-2) Inhibitors” (Pharmaceuticals, 2022).

Assay type in all cases: biochemical
Experiment [1] addresses HDAC-2 (Homo sapiens, UniProt Q92769). The experiment in a line: Enzymatic HDAC inhibition assay (fluorescence), HDAC-2. As to the method: (§1) Enzymatic assays to evaluate HDAC inhibition were performed, and the design involved three steps: (a) Preliminary screening to identify the most promising compounds; (b) Evaluation by a panel of HDAC isoforms to investigate selectivity; and (c) Determination of IC50 values. Firstly, compounds (4–7; 15–26) were evaluated at 10 µM against HDAC-1 and HDAC-2 (Table 2).
(§2) The enzymatic assay to evaluate HDAC inhibitory effects for all final compounds against the distinct isoforms was carried out in accordance with the previously described procedures (Lopes et al., 2021). All compounds were initially screened at 10 µM against HDAC-1 and HDAC-2. […] All the compounds were dissolved in DMSO. A serial dilution of the compounds was performed in 100% DMSO with the highest concentration at 1 mM. Each intermediate compound dilution (in 100% DMSO) was diluted 10x in assay buffer to form a 10% DMSO intermediate dilution in HDAC assay buffer. 5 µL of this dilution was added to a 50 µL reaction to bring the final concentration of DMSO to 1% in all the reactions. Three independent experiments were carried out in triplicate for all experiments. The fluorescence intensity was measured at an excitation of 360 nm and emission of 460 nm using a Tecan Infinite M1000 microplate reader, and the percentage of activity was calculated using the formula: % activity = (F − Fb)/(Ft − Fb), where F = the intensity of fluorescence in the presence of the compound. In the absence of the test compound, the fluorescent intensity (Ft) in each dataset was defined as 100% activity, while in the absence of HDAC, the fluorescent intensity (Fb) in each dataset was set to 0% activity.

The target of experiment [2] is HDAC-3 (Homo sapiens, UniProt O15379). The experiment in a line: Enzymatic HDAC selectivity panel, HDAC-3. As to conditions: compound at 10 µM. As to the method:
as §1
as §2, with “Three independent experiments were carried out in triplicate for all experiments.” left out, “In the absence of the test compound, the fluorescent intensity (Ft) in each dataset was defined as 100% activity, while in the absence of HDAC, the fluorescent intensity (Fb) in each dataset was set to 0% activity.” left out

The target in experiment [3] is HDAC-1 (Homo sapiens, UniProt Q13547). The experiment in a line: Enzymatic HDAC inhibition assay (fluorescence), HDAC-1. On the procedure: as §1, §2
HDAC-1, sequence (Q13547 whole entry): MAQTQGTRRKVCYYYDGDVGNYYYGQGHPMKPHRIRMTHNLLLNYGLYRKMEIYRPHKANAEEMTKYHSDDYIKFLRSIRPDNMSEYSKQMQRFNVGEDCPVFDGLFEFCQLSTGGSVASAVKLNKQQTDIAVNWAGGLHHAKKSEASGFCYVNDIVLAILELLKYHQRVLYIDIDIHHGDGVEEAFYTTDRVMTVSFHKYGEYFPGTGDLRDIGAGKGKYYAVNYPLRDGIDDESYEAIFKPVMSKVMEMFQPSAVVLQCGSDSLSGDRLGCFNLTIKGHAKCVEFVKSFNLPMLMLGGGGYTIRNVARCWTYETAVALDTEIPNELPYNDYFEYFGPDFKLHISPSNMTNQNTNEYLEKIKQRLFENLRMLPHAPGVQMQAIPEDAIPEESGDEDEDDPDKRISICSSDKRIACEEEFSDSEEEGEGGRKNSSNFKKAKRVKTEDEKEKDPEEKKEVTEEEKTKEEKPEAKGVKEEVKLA
In experiment [4] the target is T1, HDAC-6 (Homo sapiens, UniProt Q9UBN7).
T1 sequence (Q9UBN7 1-1215): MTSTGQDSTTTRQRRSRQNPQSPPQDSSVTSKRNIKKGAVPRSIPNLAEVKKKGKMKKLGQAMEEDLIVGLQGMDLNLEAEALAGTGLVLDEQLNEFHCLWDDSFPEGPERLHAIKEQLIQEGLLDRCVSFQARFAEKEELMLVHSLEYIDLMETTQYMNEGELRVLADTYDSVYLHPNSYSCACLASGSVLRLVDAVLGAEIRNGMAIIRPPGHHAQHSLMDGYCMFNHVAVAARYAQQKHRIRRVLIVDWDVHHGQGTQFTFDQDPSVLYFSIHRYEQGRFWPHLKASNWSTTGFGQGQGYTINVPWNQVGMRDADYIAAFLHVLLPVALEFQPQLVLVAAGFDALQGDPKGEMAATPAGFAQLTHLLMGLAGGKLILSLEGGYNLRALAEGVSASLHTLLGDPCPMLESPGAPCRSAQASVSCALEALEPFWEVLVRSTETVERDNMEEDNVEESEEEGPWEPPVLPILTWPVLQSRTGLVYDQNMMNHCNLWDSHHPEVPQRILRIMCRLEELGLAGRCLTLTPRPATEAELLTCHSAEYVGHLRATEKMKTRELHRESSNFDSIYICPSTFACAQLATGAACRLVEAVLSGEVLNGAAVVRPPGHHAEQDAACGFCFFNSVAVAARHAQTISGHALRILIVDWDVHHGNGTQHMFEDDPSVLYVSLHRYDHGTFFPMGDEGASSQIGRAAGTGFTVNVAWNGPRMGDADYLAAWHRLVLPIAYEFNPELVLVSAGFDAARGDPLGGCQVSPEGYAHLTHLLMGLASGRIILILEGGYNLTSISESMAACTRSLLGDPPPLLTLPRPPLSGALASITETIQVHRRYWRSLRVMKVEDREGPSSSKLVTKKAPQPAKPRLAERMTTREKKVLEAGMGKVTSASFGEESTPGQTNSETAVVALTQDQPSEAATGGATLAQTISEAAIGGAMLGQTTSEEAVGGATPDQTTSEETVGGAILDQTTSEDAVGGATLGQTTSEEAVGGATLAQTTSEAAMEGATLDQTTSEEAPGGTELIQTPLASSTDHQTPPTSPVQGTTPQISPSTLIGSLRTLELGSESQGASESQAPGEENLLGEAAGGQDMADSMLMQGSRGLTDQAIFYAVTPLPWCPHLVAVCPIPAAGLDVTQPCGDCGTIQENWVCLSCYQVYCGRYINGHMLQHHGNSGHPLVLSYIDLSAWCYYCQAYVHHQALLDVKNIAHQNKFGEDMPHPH
Briefly: Enzymatic HDAC selectivity panel, HDAC-6. As to conditions: compound at 10 µM. As to the method:
as §1
as §2, with “Three independent experiments were carried out in triplicate for all experiments.” left out, “In the absence of the test compound, the fluorescent intensity (Ft) in each dataset was defined as 100% activity, while in the absence of HDAC, the fluorescent intensity (Fb) in each dataset was set to 0% activity.” left out

Experiment [5] concerns the target HDAC-9 (Homo sapiens, UniProt Q9UKV0). Briefly: Enzymatic HDAC selectivity panel, HDAC-9. The conditions noted are these: compound at 10 µM. On the procedure: as §1
as §2, with “Three independent experiments were carried out in triplicate for all experiments.” left out, “In the absence of the test compound, the fluorescent intensity (Ft) in each dataset was defined as 100% activity, while in the absence of HDAC, the fluorescent intensity (Fb) in each dataset was set to 0% activity.” left out

Experiment [6] deals with T2, HDAC-8 (Homo sapiens, UniProt Q9BY41).
T2 sequence (Q9BY41 1-377): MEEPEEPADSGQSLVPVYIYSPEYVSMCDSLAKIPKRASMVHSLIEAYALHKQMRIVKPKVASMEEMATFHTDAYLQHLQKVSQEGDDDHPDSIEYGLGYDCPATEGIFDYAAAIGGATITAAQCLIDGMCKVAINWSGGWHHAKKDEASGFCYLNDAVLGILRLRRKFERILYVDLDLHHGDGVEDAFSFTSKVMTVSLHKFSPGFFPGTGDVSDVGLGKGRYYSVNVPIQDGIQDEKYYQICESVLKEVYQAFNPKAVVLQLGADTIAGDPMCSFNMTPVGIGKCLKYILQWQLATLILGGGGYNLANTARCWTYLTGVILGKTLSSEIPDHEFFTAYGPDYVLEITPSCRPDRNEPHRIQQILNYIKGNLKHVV
Briefly: Enzymatic HDAC selectivity panel, HDAC-8. As to conditions: compound at 10 µM. On the procedure:
as §1
as §2, with “Three independent experiments were carried out in triplicate for all experiments.” left out, “In the absence of the test compound, the fluorescent intensity (Ft) in each dataset was defined as 100% activity, while in the absence of HDAC, the fluorescent intensity (Fb) in each dataset was set to 0% activity.” left out

Experiment [7] concerns the target T3, HDAC-11 (Homo sapiens, UniProt Q96DB2).
T3 sequence (Q96DB2 1-347): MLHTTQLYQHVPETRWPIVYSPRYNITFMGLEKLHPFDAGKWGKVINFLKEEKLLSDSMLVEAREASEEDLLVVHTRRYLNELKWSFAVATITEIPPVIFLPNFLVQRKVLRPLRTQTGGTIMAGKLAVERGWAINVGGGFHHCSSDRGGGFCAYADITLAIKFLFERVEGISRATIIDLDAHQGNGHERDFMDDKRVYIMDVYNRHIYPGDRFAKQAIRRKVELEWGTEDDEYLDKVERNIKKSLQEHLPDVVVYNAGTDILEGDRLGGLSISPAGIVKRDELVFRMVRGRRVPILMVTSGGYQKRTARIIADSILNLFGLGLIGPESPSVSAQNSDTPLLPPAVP
Briefly: Enzymatic HDAC selectivity panel, HDAC-11. The conditions noted are these: compound at 10 µM. On the procedure:
as §1
as §2, with “Three independent experiments were carried out in triplicate for all experiments.” left out, “In the absence of the test compound, the fluorescent intensity (Ft) in each dataset was defined as 100% activity, while in the absence of HDAC, the fluorescent intensity (Fb) in each dataset was set to 0% activity.” left out

Experiment [8] concerns the target HDAC-4 (Homo sapiens, UniProt P56524). Briefly: Enzymatic HDAC selectivity panel, HDAC-4. The conditions noted are these: compound at 10 µM. On the procedure:
as §1
as §2, with “Three independent experiments were carried out in triplicate for all experiments.” left out, “In the absence of the test compound, the fluorescent intensity (Ft) in each dataset was defined as 100% activity, while in the absence of HDAC, the fluorescent intensity (Fb) in each dataset was set to 0% activity.” left out

HDAC-2, sequence (Q92769 whole entry, canonical isoform): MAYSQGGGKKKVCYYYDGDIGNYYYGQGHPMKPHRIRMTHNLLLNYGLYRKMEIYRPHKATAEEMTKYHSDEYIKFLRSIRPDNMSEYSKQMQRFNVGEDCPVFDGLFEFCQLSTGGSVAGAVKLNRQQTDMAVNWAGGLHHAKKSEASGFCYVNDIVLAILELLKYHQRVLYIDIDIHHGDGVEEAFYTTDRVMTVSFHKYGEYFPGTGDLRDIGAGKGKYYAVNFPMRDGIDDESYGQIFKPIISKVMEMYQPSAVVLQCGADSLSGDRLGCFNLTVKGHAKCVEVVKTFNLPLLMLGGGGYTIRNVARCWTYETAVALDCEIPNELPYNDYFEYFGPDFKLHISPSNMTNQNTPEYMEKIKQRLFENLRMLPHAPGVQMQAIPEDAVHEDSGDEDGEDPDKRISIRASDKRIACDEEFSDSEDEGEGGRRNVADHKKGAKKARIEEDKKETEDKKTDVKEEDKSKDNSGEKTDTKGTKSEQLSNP
HDAC-9, sequence (Q9UKV0 whole entry): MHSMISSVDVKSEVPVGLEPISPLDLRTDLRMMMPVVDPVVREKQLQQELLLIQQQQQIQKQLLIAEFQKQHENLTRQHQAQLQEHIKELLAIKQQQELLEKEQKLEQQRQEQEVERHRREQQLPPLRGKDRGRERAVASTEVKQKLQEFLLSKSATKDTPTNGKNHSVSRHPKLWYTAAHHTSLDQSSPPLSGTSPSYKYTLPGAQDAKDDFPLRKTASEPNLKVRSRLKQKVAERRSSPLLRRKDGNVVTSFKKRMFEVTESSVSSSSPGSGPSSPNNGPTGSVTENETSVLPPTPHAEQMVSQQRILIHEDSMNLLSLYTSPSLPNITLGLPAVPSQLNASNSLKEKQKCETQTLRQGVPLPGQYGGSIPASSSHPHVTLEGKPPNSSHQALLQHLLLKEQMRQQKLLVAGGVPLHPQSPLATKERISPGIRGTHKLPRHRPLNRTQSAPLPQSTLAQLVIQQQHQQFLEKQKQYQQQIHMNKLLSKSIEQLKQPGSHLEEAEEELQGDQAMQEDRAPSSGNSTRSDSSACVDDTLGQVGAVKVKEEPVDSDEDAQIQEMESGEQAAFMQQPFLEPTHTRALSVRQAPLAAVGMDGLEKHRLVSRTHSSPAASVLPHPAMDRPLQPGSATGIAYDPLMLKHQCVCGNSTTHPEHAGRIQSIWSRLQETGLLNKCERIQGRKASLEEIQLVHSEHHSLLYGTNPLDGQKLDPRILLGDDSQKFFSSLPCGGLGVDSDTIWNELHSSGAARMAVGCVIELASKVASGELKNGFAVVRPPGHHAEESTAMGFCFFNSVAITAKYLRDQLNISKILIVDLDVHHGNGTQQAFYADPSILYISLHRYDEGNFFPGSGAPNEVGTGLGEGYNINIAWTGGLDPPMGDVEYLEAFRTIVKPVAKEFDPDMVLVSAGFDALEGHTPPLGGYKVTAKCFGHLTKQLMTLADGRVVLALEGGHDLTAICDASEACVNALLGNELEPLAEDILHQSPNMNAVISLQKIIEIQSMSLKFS
HDAC-3, sequence (O15379 whole entry): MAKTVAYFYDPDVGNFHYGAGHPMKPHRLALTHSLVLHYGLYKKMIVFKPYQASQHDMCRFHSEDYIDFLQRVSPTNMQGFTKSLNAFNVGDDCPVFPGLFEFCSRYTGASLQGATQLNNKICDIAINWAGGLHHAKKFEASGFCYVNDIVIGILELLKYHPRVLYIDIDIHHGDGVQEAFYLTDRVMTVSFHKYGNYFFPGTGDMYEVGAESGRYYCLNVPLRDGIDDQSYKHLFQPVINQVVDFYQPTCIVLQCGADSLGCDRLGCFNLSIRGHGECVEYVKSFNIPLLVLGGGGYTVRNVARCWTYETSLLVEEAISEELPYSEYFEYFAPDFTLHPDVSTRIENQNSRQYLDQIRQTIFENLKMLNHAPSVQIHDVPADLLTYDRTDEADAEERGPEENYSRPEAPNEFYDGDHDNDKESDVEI
HDAC-3, sequence (Q9Y618 395-489 partner limits assumed): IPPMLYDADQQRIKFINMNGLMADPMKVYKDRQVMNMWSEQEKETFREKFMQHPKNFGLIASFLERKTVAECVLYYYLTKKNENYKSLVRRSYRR
HDAC-4, sequence (P56524 whole entry): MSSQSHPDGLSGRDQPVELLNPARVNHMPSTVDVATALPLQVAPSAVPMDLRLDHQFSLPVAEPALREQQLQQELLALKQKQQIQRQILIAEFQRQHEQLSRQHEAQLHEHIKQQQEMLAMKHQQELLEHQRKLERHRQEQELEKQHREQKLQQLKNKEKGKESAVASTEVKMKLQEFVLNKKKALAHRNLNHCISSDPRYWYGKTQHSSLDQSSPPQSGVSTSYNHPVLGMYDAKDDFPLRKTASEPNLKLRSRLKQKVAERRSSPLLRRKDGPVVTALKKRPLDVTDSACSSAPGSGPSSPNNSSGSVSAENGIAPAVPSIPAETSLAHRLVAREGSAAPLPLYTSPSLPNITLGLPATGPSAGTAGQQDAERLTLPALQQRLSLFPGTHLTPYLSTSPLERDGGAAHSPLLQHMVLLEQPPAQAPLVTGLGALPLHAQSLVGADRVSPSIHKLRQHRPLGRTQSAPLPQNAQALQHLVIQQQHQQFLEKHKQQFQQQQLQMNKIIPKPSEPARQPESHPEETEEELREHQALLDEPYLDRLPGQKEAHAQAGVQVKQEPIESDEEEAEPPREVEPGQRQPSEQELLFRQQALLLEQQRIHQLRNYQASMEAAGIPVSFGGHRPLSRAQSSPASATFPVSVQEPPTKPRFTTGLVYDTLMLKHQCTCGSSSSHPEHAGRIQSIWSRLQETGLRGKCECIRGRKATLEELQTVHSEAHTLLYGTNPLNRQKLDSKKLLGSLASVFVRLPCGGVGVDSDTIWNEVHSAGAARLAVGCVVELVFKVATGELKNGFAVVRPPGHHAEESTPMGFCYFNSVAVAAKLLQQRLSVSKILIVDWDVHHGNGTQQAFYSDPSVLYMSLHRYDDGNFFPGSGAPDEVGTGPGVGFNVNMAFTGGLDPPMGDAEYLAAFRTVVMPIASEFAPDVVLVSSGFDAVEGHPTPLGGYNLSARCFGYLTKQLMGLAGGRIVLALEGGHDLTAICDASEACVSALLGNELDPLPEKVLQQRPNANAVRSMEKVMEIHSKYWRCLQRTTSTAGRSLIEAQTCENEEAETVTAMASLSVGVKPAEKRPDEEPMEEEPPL

As usually defined, the inhibition is the share of the control response that was lost under treatment. High values mean a response far below the control, low ones a response near the control. Usually IC50 stands for the midpoint of a concentration-inhibition curve. For `Nc1ccc(CCc2ccc(C(=O)Nc3ccccc3N)cc2)cc1` [Compound (5)], the inhibition at 10 µM in experiment [1] (compound at 10 µM) turned out to be 93%; in experiment [2] it was 82 ± 1.2%; in experiment [3] (compound at 10 µM), 92%; in experiment [4], 3 ± 0.4%; in experiment [5] it was 7 ± 0.4%; in experiment [6] it was 13 ± 1%. Also, the inhibition at 10 µM in experiment [7] worked out at 15 ± 0.6%; in experiment [8], 5 ± 0.4%. In addition, the HDAC-2 inhibition in experiment [1] (compound at 10 µM, 10 µM) is 92 ± 0.8%. The IC50 in experiment [1] (substrate 10 µM) worked out at 370 nM; in experiment [3] (substrate 10 µM) it was 440 nM. The HDAC-1 inhibition in experiment [3] (compound at 10 µM, 10 µM) came out at 93 ± 1.0%.
